From patent US7062219B2, “Protein fragment complementation assays for high-throughput and high-content screening” (Odyssey Thera Inc., priority 1997, dated 2006) come the findings set out here.

Assay type in all cases: cell-based
One test concerns PKB/hFt1 complex. Kind of test: GFP PCA for PKB/hFt1 in COS-1 cells, fluorometric analysis and microscopy. The note with it: 10% serum or 20 μg/ml insulin, 30 min. An excerpt: (§1) DNA Constructs. The full-length cDNAs encoding PKB, PDK1, PKCalpha, the catalytic subunit of PKA (PKAc), GSK3beta, BAD, Caspase 9 and FKHRL1 were amplified by PCR and subcloned into the eukaryotic expression vector pMT3 [Kaufman, 1989 #23], 5′ of the F[2] fragment of GFP. GFP[1] corresponds to amino acids 1 to 158 and GFP[2] to amino acids 159 to 239 of GFP and was amplified by PCR from pCMS-EGFP (Clontech). The PKB-GFP[2] fusion was also inserted in a pMT3 vector where the ampicillin resistance gene has been replaced by a chloramphenicol resistance gene (pMT3-chloramphenicol) for the purpose of the cDNA library screen. In all cases, a 10 amino acid flexible linker consisting of (GGGGS)2 (SEQ ID No.1) was inserted between the cDNA and the GFP fragments to assure that the orientation/arrangement of the fusions in space is optimal to bring the protein fragments into close proximity. […]
(§2) COS-1 cells were split in 12-well plates 24 h before transfection. […] The relative amount of reconstituted GFP, a measure of the interaction between the fused protein partners, was detected by fluorometric analysis. […] The background fluorescence intensity corresponding to non-transfected cells was subtracted from the fluorescence intensities of all of the samples. The sub-cellular location of the hFt1/PKB and hFt1/PDK1 protein-protein complexes was also determined by fluorescence microscopy in live cells. […]

The next test has as its system PDK1/hFt1 complex. Briefly: GFP PCA for PDK1/hFt1 in COS-1 cells, fluorometric analysis and microscopy. The note with it: 10% serum or 20 μg/ml insulin, 30 min.
Excerpt: as §1, §2

The subject of test [1] is p53/p53 homo-dimerization. Kind of test: Renilla luciferase PCA (RLuc PCA) for p53/p53 in HEK293T cells. From the text: Either the wild type RLuc F1 or the mutant RLuc F1(C124A) can be used in combination with the RLuc F2 fragment provided above to generate luminescent PCAs. The following examples below show the results obtained with the wild-type RLuc fragments. The F1 and F2 fragments described above were created by oligonucleotide synthesis (Blue Heron Biotechnology, Bothell, Wash.) and were designated RL[1] (aa 1–160) and RL[2] (aa 161–311). […]
STAT1/PDK2 served as a negative control PCA. […] Isolated DNAs were quantitated and then normalized to a concentration of 50 ng/microliter.
The luciferase PCA was constructed to quantify the homo-dimerization of p53 (p53/p53 PCA) and compared to a negative control RLuc PCA (Pdk2/STAT1). […] For each sample, the luminescence released was captured over 10 seconds, with a 2 second delay after addition of substrate to the sample. Data are reported as relative luminescence units (RLU), and have not been normalized to protein content.
For each condition tested, cells were transfected in quadruplicate with 0.1 microgram of total DNA (50 ng each of RL[1]-p53 and RL[2]-p53) using Fugene transfection reagent as above. […] Drug was removed by washing two times with PBS, and cell lysates were prepared as described above prior to performing a Renilla Luciferase luminescence detection assay (Promega). […]

The next test has as its system Pdk2:STAT1. Briefly: negative control RLuc PCA (Pdk2/STAT1) in HEK293T cells. To be noted: 500 nM CPT for 18 hours. An excerpt:
STAT1/PDK2 served as a negative control PCA. The full coding sequences for p53, STAT1 and PDK2 were amplified by PCR from sequence verified full-length cDNAs. The resulting PCR products were desalted, digested with appropriate restriction enzymes to allow directional cloning, and fused in-frame to either the 5′ or 3′-end of RL[1], RL[2], RL[3] or RL[4] through a linker encoding a flexible 10 amino acid peptide (GGGGS)2 (SEQ ID No.1) to assure that the orientation/arrangement of the fusions in space is optimal to bring the fluorescent protein fragments into close proximity. DNAs from recombinant constructs were isolated using Qiagen Turbo BioRobot Prep kits (Qiagen, Chatsworth, Calif.) on a Beckman FX robotic workstation (Beckman Coulter, Fullerton, Calif.). Isolated DNAs were quantitated and then normalized to a concentration of 50 ng/microliter.
The luciferase PCA was constructed to quantify the homo-dimerization of p53 (p53/p53 PCA) and compared to a negative control RLuc PCA (Pdk2/STAT1). […] For each sample, the luminescence released was captured over 10 seconds, with a 2 second delay after addition of substrate to the sample. Data are reported as relative luminescence units (RLU), and have not been normalized to protein content. […]

Turning to “insulin: insulin (Roche Diagnostics), pathway stimulus”, in the test on PKB/hFt1 complex, the “amount of the PKB/hFt1 complexes (fluorescence)” value was “increase” and the “subcellular location of PKB/hFt1 complexes” value is “redistribution of the protein-protein complexes from the cytosol to the membrane”. In the test on PDK1/hFt1 complex, the “amount of the PDK1/hFt1 complexes (fluorescence)” value is recorded as “increase” and the “subcellular location of PDK1/hFt1 complexes” value is on record as “redistribution of the protein-protein complexes from the cytosol to the membrane”.
Regarding `CC[C@@]1(O)C(=O)OCc2c1cc1n(c2=O)Cc2cc3ccccc3nc2-1` [camptothecin], in test [1] (500 nM CPT for 18 hours, HEK293T lysates), the “increase in luminescence relative to vehicle (0.1% DMSO)” value came out at 27%. Further, the “effect on the p53/p53 interaction in the RLuc PCA (in words)” value in test [1] (FIG. 3(B)) is “induction”. Further, the “effect on luminescence of the negative control PCA” value with Pdk2:STAT1 is “no effect”.
